The values that follow come from ChEMBL document CHEMBL1201862, “PubChem BioAssay data set” (2004).

Assay [1] deals with T1, DNA dC->dU-editing enzyme APOBEC-3G (Homo sapiens, UniProt Q9HC16). Nature of the assay: inhibition of APOBEC3G ssDNA deamination – biochemical, fluorescence, single-stranded DNA substrate, SAR follow-up (AID 602136). Format: functional. Particulars: read-out: IC50_Mean.
In assay [2] the target is T2, DNA dC->dU-editing enzyme APOBEC-3A (Homo sapiens, UniProt P31941). Briefly: SAR analysis of small molecule inhibitors of APOBEC3A DNA Deaminase via a fluorescence-based single-stranded DNA deaminase assay - Set 2. Format: functional. The following applies: read-out: IC50_Mean.
The target of assay [3] is T2, DNA dC->dU-editing enzyme APOBEC-3A. Briefly: SAR analysis of small molecule inhibitors of APOBEC3A DNA Deaminase via a fluorescence-based single-stranded DNA deaminase assay. Format: functional. Particulars: read-out: IC50_Mean.
For assay [4], the target named is T1, DNA dC->dU-editing enzyme APOBEC-3G. Briefly: Dose Response confirmation of small molecule APOBEC3G DNA Deaminase Inhibitors via a fluorescence-based single-stranded DNA deaminase assay. [Related pubchem assays (depositor defined):AID493012, AID493028]. The assay is classed as functional.
Assay [5] addresses T2, DNA dC->dU-editing enzyme APOBEC-3A. Briefly: A3A deaminase inhibition for selectivity – biochemical, dose response (AID 504722). Format: functional.
For assay [6], the target named is T1, DNA dC->dU-editing enzyme APOBEC-3G. Nature of the assay: SAR analysis of small molecule inhibitors of APOBEC3G DNA Deaminase via a fluorescence-based single-stranded DNA deaminase assay - Set 2. Format: functional. Particulars: read-out: IC50_Mean.
For assay [7], the target named is ORF 73 (Human herpesvirus 8, UniProt O40947). Nature of the assay: KSHV LANA DNA-binding disruption – biochemical, fluorescence polarization, cherry-picked samples, dose response (AID 504725).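 Further: fluorescence polarization of a labeled DNA duplex reporting LANA DNA binding; potency is for inhibitors that block LANA binding to the DNA.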 Set-up: species or system Human gammaherpesvirus 8.
The target in assay [8] is Multidrug resistance protein CDR2 (Candida albicans (strain SC5314 / ATCC MYA-2876) (Yeast), UniProt P78595). Briefly: inhibition of Nile Red efflux via Candida CDR2 – S. cerevisiae AD1-8u, singleplex, Cherry Pick1 hits, dose response (AID 588604). The assay is classed as functional.
Assay [9] concerns the target Benomyl/methotrexate resistance protein (Candida albicans, UniProt P28873). Nature of the assay: Candida albicans Mdr1 pump inhibition curves – singleplex, Cherry Pick1 hits, dose response (AID 588608). Format: functional.

Activity calls are given as the source filed them.

T1 sequence (Q9HC16 whole entry): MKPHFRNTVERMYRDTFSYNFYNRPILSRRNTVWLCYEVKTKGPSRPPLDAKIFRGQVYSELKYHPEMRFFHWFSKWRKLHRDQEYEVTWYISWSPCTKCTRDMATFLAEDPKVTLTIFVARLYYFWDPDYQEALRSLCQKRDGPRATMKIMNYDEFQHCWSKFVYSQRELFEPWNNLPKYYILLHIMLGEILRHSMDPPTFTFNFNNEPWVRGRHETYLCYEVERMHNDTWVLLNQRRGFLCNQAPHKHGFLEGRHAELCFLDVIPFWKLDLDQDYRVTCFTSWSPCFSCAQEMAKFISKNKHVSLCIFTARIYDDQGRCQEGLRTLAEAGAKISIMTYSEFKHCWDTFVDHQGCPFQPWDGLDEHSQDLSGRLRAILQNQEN
T2 sequence (P31941 whole entry): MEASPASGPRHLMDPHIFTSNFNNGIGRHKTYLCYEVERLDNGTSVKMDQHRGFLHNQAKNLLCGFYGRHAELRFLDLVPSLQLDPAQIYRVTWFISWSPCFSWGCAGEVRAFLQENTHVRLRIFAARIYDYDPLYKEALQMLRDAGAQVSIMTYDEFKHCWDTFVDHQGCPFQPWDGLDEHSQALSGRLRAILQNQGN
Sequence of ORF 73 (O40947 whole entry): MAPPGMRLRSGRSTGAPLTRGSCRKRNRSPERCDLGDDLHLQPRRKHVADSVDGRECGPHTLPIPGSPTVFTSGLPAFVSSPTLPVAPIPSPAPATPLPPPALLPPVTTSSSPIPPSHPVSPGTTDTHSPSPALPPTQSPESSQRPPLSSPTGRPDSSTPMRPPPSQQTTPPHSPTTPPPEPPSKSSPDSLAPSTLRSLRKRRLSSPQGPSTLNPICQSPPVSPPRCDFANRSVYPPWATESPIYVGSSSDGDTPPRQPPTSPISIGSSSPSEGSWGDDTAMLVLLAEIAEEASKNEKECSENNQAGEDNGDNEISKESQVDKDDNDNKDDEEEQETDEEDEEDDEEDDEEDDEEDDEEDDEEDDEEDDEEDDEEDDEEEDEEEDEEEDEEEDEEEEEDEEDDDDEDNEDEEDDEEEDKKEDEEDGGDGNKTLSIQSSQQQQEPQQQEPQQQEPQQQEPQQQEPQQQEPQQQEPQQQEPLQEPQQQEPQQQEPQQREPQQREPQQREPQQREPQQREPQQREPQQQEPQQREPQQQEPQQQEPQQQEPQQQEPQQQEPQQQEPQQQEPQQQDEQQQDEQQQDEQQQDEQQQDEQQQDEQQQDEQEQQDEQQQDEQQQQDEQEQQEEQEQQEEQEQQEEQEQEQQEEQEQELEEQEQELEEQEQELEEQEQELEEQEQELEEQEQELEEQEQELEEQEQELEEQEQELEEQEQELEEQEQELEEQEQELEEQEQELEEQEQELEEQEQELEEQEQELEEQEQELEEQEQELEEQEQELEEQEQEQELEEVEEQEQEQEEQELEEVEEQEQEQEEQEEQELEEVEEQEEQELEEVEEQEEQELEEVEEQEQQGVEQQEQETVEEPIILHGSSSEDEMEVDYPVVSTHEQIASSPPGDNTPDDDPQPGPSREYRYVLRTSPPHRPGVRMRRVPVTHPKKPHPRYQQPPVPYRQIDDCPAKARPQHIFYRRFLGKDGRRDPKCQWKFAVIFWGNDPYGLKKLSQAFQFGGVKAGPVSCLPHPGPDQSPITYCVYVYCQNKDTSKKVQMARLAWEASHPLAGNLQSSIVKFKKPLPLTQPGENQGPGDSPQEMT
Sequence of Benomyl/methotrexate resistance protein (P28873 whole entry): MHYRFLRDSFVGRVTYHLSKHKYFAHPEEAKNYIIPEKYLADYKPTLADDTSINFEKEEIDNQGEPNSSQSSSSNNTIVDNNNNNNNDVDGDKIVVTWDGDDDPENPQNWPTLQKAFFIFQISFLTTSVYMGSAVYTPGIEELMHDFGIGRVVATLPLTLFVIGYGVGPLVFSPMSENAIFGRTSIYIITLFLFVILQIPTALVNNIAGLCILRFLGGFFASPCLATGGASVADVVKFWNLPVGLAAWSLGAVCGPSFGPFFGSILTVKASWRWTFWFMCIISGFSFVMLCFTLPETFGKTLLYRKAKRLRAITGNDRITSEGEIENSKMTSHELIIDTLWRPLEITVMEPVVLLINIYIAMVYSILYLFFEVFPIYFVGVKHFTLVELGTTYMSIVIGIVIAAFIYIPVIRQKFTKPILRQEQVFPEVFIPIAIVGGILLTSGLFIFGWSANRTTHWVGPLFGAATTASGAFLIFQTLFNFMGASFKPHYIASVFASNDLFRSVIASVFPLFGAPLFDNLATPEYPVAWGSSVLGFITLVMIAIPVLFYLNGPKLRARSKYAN
Sequence of Multidrug resistance protein CDR2 (P78595 whole entry): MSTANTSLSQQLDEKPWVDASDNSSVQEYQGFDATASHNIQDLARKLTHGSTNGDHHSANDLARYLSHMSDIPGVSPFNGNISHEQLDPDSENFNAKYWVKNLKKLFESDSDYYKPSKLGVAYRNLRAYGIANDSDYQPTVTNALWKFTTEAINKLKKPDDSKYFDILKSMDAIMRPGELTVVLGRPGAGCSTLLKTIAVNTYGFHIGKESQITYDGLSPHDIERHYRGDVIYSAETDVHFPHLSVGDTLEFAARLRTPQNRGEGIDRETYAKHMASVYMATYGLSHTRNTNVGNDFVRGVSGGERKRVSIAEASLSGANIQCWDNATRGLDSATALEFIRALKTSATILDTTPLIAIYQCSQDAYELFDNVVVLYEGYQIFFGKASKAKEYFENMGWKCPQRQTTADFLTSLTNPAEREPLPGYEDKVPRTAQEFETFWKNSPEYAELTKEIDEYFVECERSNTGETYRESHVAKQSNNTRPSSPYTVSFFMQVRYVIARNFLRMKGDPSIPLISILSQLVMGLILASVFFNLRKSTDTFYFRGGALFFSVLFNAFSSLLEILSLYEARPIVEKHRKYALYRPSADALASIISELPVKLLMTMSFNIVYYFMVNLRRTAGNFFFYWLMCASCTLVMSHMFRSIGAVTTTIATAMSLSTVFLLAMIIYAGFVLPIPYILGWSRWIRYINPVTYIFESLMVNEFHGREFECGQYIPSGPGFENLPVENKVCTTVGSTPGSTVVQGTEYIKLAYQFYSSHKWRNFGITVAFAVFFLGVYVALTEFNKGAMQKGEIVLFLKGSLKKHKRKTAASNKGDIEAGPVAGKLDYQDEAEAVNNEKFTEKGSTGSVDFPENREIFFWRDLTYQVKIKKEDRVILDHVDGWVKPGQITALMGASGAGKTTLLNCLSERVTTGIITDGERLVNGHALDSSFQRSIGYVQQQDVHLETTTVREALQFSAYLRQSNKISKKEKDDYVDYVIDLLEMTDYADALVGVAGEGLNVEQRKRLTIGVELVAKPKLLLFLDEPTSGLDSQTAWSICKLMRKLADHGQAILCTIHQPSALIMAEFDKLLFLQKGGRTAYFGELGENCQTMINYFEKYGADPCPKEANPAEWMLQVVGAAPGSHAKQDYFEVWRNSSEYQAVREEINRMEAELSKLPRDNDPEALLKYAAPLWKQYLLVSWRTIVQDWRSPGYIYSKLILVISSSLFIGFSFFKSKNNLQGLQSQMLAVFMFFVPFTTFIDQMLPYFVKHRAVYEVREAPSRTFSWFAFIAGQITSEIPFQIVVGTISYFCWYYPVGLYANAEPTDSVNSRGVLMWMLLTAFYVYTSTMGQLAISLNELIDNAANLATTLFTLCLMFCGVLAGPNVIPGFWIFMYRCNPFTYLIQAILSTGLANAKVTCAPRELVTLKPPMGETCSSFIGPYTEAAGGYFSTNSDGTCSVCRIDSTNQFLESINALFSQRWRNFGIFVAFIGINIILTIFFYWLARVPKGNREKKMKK

Consider `S=c1[nH]nc2c3c4c(sc3ncn12)CCCC4`, for which the IC50 was 3.15 µM (active) in assay [1]; > 99 µM (inactive) in [2]; > 99 µM (inactive) in [3]; 0.992 µM (active) in assay [4]; > 100 µM (inactive) in assay [5]; > 99 µM (inactive) in assay [6].
As to `O=C1/C(=C/c2ccco2)Oc2c1ccc(O)c2CN1CCCCC1`, in [7], the AC50 is 14.5 µM (active). Besides, the EC50 in assay [8] was 18.4 µM (active); in [9], 9.63 µM (active).
